US10800790B2, “Sesquiterpenoid STAT3 inhibitors” (University of Hawaii, priority 2013, dated 2020)

How the values were obtained:
pSTAT1 = experiment: Immunoblotting of EGF-induced pSTAT1 in NIH3T3/hEGFR; settings: 5 micromolar
Protocol: (§2) To determine the specificity of agents, mouse fibroblasts over-expressing the human EGF receptor (NIH3T3/hEGFR) were treated with the compounds and stimulated with EGF.
(§3) (A-C) SDS-PAGE and Western blotting analysis of whole-cell lysates of equal total protein prepared from (A) EGF-stimulated NIH3T3/hEGFR cells pre-treated with the 5 micromolar of the designated agents for 24 h and probing for pY705STAT3, STAT3, pY701 STAT1, STAT1, pY694STAT5, STAT5 or GAPDH, or the human glioma, U251MG cells treated with 5 micromolar of the designated inhibitors for (B) 0-32 h and probing for pS-Akt, Akt, pErk1/2, Erk1/2, pJAK2, JAK2, SOCS3, PTP1B, pSTAT3, STAT3, β-actin or GAPDH; or (C) 3 h in the absence or presence of increasing concentration of Na3VO4 and probing for pSTAT3, STAT3 or GAPDH/.

U251MG cells [1] = experiment: Colony survival assay, U251MG; format: cell-based, human
Protocol: The effect of the isolated or synthesized compounds in a colony survival assay was performed.
This assay was performed as previously reported (Xu, Y., supra). The assay was performed as previously reported. Briefly, cells were seeded as single-cell in 6-well plates (250 cells per well), treated once the next day with compounds for 72 h, and allowed to grow until large colonies were visible. Colonies were stained with crystal violet for 4 h and counted with FluorChem imaging system (Protein Simple, Santa Clara, Calif.).

[2] = target: T1, STAT3 (NIH3T3/v-Src nuclear extracts) (Mus musculus, UniProt P42227); experiment: In vitro STAT3 DNA-binding activity/EMSA, nuclear extracts incubated with compound; format: biochemical; settings: 5 micromolar, 30 min at room temperature
T1 construct: nuclear extracts prepared from v-Src-transformed mouse fibroblasts (NIH3T3/v-Src) containing active STAT3; endogenous in cells; host or cells: NIH3T3/v-Src mouse fibroblasts (nuclear extract)
Protocol: To further determine the effects of the bioactive agents on STAT3 activity, nuclear extracts prepared from v-Src-transformed mouse fibroblasts (NIH3T3/v-Src) containing active STAT3 were directly incubated with 5 micromolar compounds for 30 min at room temperature prior to performing STAT3 DNA-binding activity in vitro with EMSA analysis. […] These studies indicate that agents directly interact with STAT3 and disrupt STAT3:STAT3 dimers, thereby inhibiting its DNA-binding activity.
Data are representative of 2-3 independent determinations.
Nuclear extract preparations and DNA-binding/electrophoretic mobility shift assay (EMSA) were carried out as previously described (Xu, supra). Nuclear extract preparations and DNA-binding activity/electrophoretic mobility shift assay (EMSA) were carried out as previously described. U251 MG and MDA-MB-231 cells culture were pretreated with different concentrations of the compounds for the indicated period and then harvested for nuclear extract preparation and DNA-binding assay with EMSA analysis. The ^32P-labeled oligonucleotide probe used was hSIE (high-affinity sis-inducible element) from the c-fos gene, m67 variant (5′-[…]-3′) that binds STAT3. Except where indicated, nuclear extracts were pre-incubated with compound for 30 min at room temperature prior to incubation with the radiolabeled probe for 30 min at 30° C. before subjecting to EMSA analysis. Where appropriate, bands corresponding to DNA-binding activities were scanned and quantified for each concentration of compound using ImageJ and plotted as percent of control (vehicle) against concentration of compound, from which the IC50 values were derived.

U251MG cells [3] = experiment: Wound healing assay for migration; format: cell-based, human; settings: 0-5 micromolar, 19 h, viability unaffected
Protocol: Viable cell numbers at 19 h post-treatment were counted and are represented (right panel). Values are the mean and S.D. of 3-4 independent determinations. Data are representative of 3 independent determinations.
This assay was performed as previously reported. (Xu, Y., supra). Briefly, subconfluent cultures of U251MG cells in 6-well plates were wounded using pipette tips and treated with compound or vehicle (DMSO) and allowed to migrate into the denuded area over a 19 h period. The migration of cells was visualized at a 10× magnification using an Axiovert 200 inverted fluorescence microscope (Zeiss), with pictures taken using a mounted Canon Powershot A640 digital camera.

pSTAT5 = experiment: Immunoblotting of EGF-induced pSTAT5 in NIH3T3/hEGFR; settings: 5 micromolar
Protocol: as §2, §3

[4] = tested on: MDA-MB-231 breast cancer cells; experiment: CyQuant cell viability/proliferation assay, MDA-MB-231; format: cell-based, human; design: key to Activity against 231: +, active; −, no activity; +/−, poorly active; settings: Table 1 grade; Table 1/FIG. 2 compound numbering
Protocol: (§1) The cell viability assay was performed as previously reported (Zhang X, et al. (2010)). Briefly, a 10 millimolar concentration stock solution in dimethylsulfoxide (DMSO) of the tested molecule was first prepared. Next, the stock solution was diluted down to various working solutions in water. Thus, a formulation of the tested compound in a DMSO/water mixture was used to test for cell viability. (A novel small-molecule disrupts STAT3 SH2 domainphosphotyrosine interactions and STAT3-dependent tumor processes, Biochem Pharmacol 79:1398-1409; Zhao W, Jaganathan S, & Turkson J (2010), A cell-permeable STAT3 SH2 domain mimetic inhibits STAT3 activation and induces antitumor cell effects in vitro. J Biol Chem. 285:35855-35865). Cells (U251MG, MDA-MB-231 or NIH3T3) were obtained from ATCC (Manassas, Va.) and were cultured in 96-well plates at 2,000 cells per well for 24 h and were treated with compounds (5 micromolar concentration) for 72 h. Cell viabilty was determined using CyQuant assay, according to the manufacturer's (Invitrogen, CA, USA) instructions. Relative viability of the treated cells was normalized to the DMSO-treated control cells.

[5] = tested on: GSH levels in U251 MG cells; experiment: Glutathione (GSH) levels in U251 MG cells
Protocol: Reduced glutathione (GSH) and oxidized glutathione disulfide (GSSG) levels were assayed using a commercially available kit (Cayman Chemical, Ann Arbor, Mich.) and following the manufacturer's instructions.

[6] = tested on: normal NIH3T3 mouse fibroblasts; experiment: CyQuant cell viability/proliferation assay, NIH3T3; format: cell-based; design: key to Activity against 3T3: +, active; −, no activity; +/−, poorly active; settings: Table 1 grade; Table 1/FIG. 2 compound numbering
Protocol: as §1

[7] = tested on: U251MG glioblastoma cells; experiment: CyQuant cell viability/proliferation assay, U251MG; format: cell-based, human; settings: Table 1/FIG. 2 numbering
Summary of the method: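 Cells plated at 2,000 per well for 24 h, then exposed 72 h to compounds at 5 micromolar in DMSO/water. Viability read by CyQuant and normalised to DMSO-treated controls.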

[8] = tested on: STAT3 DNA-binding activity; experiment: STAT3 DNA-binding activity (EMSA) of nuclear extracts from treated tumor cells; settings: 5 micromolar, time course
Protocol: Positions of STATs:DNA complexes or proteins in gel are labeled; control lanes (0) represent nuclear extracts or whole-cell lysates prepared from 0.05% DMSO-treated cells.
Nuclear extract preparations and DNA-binding/electrophoretic mobility shift assay (EMSA) were carried out as previously described (Xu, supra). Nuclear extract preparations and DNA-binding activity/electrophoretic mobility shift assay (EMSA) were carried out as previously described. U251 MG and MDA-MB-231 cells culture were pretreated with different concentrations of the compounds for the indicated period and then harvested for nuclear extract preparation and DNA-binding assay with EMSA analysis. […] Except where indicated, nuclear extracts were pre-incubated with compound for 30 min at room temperature prior to incubation with the radiolabeled probe for 30 min at 30° C. before subjecting to EMSA analysis.

T1 sequence (P42227 whole entry): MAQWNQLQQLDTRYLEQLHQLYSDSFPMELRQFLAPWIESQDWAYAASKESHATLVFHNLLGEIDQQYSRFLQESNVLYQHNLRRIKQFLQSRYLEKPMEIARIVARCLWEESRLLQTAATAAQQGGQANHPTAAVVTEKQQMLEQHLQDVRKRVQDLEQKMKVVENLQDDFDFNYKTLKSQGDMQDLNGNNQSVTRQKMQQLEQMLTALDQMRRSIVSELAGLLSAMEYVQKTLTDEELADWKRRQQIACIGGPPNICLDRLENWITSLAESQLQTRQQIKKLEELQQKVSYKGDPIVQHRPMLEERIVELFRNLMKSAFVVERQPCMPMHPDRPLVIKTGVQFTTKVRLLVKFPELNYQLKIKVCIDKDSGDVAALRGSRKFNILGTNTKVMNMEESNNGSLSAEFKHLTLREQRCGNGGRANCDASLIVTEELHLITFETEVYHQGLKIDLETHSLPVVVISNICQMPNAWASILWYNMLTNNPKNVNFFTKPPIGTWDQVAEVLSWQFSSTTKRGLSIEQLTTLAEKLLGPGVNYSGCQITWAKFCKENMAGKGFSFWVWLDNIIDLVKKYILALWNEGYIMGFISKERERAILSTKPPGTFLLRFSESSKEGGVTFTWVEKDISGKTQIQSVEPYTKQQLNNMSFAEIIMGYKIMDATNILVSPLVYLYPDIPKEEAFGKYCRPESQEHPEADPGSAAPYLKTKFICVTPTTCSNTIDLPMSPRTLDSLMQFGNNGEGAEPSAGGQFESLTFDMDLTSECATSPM

(4S,6R,E)-4,7-dihydroxy-6,10-dimethyl-2-oxo-2,4,5,6,7,8,9,10-octahydro-7,10-epoxycyclodeca[b]furan-3-yl)methyl(E)-2-methylbut-2-enoate [Compound 22]
Effect on EGF-induced pSTAT1 (pSTAT1): no effects
Preferential effect on colony survival of U251MG and MDA-MB231 over MCF-7 (U251MG cells [1]): 2.5 fold
Inhibition of STAT3 DNA-binding activity in vitro (EMSA) [2]: strong inhibition
Cell migration into the denuded area (U251MG cells [3]): suppressed the numbers of U251 cells migrating into the denuded area
Effect on EGF-induced pSTAT5 (pSTAT5): no effects
Activity against 231 [4]: +
Effect on GSH levels [5]: did not repress GSH levels
Activity against 3T3 [6]: +/−
IC50 ([7]; 72-h treatment, read-out: IC50 for the inhibition of U251MG cell viability): 2600 nM
Cell-type selectivity of growth inhibition, in words ([7]; U251MG versus other cells incl. NIH3T3): selective against the growth of human glioma U251MG cells
Inhibition of STAT3 DNA-binding activity in treated cells (EMSA) [8]: early inhibition at 15-30 min
